Experimental data reported in patent US11052072B2, “Pyrazolo[4,3-C] quinoline derivatives for inhibition of β-glucuronidase” (Kaohsiung Medical University, priority 2015, dated 2021).
Structures can show the parent of a compound that is named as a salt.

Experiments:
[1] = biological target: E. coli β-glucuronidase (eβG) (Escherichia coli, UniProt P05804); test: Inhibition of purified recombinant eβG activity (pNPG substrate, OD420); format: biochemical; settings: for remaining activity at 10 µM: read-out: Percent activity of E. coli-glucuronidase at 10 μM (%)
E. coli β-glucuronidase (eβG), sequence (P05804 whole entry): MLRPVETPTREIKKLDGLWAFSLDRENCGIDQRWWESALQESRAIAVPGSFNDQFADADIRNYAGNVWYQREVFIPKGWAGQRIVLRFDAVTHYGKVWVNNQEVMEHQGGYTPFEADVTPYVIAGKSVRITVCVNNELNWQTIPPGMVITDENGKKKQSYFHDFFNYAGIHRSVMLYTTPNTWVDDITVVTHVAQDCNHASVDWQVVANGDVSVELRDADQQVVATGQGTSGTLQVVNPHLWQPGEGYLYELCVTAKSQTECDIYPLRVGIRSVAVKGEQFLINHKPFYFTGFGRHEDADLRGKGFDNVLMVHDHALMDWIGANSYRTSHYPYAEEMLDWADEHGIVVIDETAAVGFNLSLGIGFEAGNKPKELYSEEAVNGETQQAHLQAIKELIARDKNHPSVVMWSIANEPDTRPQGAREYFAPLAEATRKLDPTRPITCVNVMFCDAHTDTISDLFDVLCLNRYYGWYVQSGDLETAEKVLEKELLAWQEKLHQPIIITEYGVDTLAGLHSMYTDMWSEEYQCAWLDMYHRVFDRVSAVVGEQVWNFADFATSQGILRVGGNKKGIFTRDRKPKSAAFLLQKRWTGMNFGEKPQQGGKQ
Experimental: (§1) The pyrazolo[4,3-c]quinoline derivatives were examined for their inhibition against eβG or hβG activity. Purified recombinant eβG or hβG proteins were incubated with serial dilution of the inhibitors, respectively. The βG activity was determined by color development of a βG substrate, pNPG. The hydrolysis product of pNPG, PNP was measured by OD420.

[2] = biological target: T1, human liver-glucuronidase (hβG) (Homo sapiens, UniProt P08236); test: Inhibition of purified recombinant hβG activity (pNPG substrate, OD420); format: biochemical; settings: 10 μM; purified recombinant hβG, pNPG; means ± S.D. of at least three separate experiments; read-out: Percent activity of human liver-glucuronidase at 10 μM (%)
T1 sequence (P08236 23-651): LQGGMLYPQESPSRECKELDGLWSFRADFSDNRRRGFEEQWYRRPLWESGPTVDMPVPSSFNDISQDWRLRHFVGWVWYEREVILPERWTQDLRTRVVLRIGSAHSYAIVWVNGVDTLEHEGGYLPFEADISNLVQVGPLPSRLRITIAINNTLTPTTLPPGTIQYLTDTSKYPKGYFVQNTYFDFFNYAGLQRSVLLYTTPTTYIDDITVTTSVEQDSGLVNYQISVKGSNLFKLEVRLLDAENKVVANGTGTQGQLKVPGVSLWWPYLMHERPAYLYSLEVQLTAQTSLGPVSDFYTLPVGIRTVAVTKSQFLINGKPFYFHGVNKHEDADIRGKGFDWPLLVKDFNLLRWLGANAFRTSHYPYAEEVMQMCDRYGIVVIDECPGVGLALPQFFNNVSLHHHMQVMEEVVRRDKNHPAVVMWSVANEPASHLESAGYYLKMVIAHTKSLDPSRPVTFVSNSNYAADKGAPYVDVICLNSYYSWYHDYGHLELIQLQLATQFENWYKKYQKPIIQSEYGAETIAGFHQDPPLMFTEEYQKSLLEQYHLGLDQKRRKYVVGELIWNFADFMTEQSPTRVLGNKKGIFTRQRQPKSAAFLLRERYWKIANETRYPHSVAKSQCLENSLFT
Experimental: as §1

endogenous eβG activity = biological target: T2, endogenous eβG activity (Escherichia coli, UniProt P05804); test: Endogenous β-glucuronidase activity assay in BL21 E. coli cells; format: cell-based; settings: at both low (10 μM) or high concentration (50 μM) (FIG. 2)
T2 construct: endogenous in cells; host or cells: BL21 E. coli
T2 sequence (P05804 whole entry): as the sequence (P05804 whole entry) above
Experimental: The pyrazolo[4,3-c]quinoline derivatives were examined for their inhibition against endogenous eβG activity. This assay is similar with the in vitro assay. BL21 E. coli cells were grown to an OD600 of 0.35 in LB medium. E. coli were 4 times diluted and incubated with each inhibitor. The endogenous eβG activity was measured by detecting PNP as described.

With `Nc1n[nH]c2c1c(Nc1ccc(O)cc1)nc1ccccc12` [Compound 15, 3-Amino-4-(4-hydroxyphenylamino)-1H-pyrazolo[4,3-c]quinoline] the remaining activity at 10 µM [1] was 7 ± 1%, the remaining activity at 10 µM [2] was 95 ± 4.24% and the melting point was 347 to 349 °C.
For `COc1ccc(NC(=O)Nc2n[nH]c3c2c(=O)[nH]c2ccccc23)cc1` [Compound 35, 1-(4-Methoxyphenyl)-3-(4-oxo-4,5-dihydro-1H-pyrazolo[4,3-c]-quinolin-3-yl)urea], the remaining activity at 10 µM [1] was 52 ± 4.24%, the remaining activity at 10 µM [2] was 81.5 ± 0.71% and the melting point was 224 to 225 °C.
Molecule `Cc1ccc(Nc2nc3c(C)cccc3c3[nH]nc(N)c23)cc1` [Compound 7, 6-Methyl-N^4-(p-tolyl)-1H-pyrazolo[4,3-c]quinoline-3,4-diamine] has a remaining activity at 10 µM [1] of 3 ± 1%, a remaining activity at 10 µM [2] of 74 ± 1% and a melting point of 270 to 271 °C.
Molecule `O=C(Nc1ccccc1)Nc1n[nH]c2c1c(Nc1ccc(Cl)cc1)nc1ccccc12` [Compound 36, 1-{4-[(4-Chlorophenyl)amino]-1H-pyrazolo[4,3-c]quinolin-3-yl}-3-phenylurea] has a remaining activity at 10 µM [1] of 4 ± 1%, a remaining activity at 10 µM [2] of 83.1 ± 1.29% and a melting point of 282 to 283 °C.
For `COc1ccc(Nc2nc3ccccc3c3[nH]nc(N)c23)cc1` [Compound 19, 3-Amino-4-(4-methoxyphenylamino)-1H-pyrazolo[4,3-c]quinoline], the remaining activity at 10 µM [1] was 3 ± 1%, the remaining activity at 10 µM [2] was 102 ± 2.12% and the melting point was 228 to 230 °C.
`Nc1n[nH]c2c1c(Nc1ccc(C(F)(F)F)cc1)nc1ccccc12` [Compound 18, 3-Amino-4-(4-trifluoromethylphenylamino)-1H-pyrazolo[4,3-c]quinoline] gave a remaining activity at 10 µM [1] of 4.5 ± 0.71%, a remaining activity at 10 µM [2] of 106 ± 2.83% and a melting point of 251 to 252 °C.
Work on `Nc1n[nH]c2c1c(Nc1cccc(Cl)c1)nc1ccccc12` [Compound 26, N^4-(3-Chlorophenyl)-1H-pyrazolo[4,3-c]quinoline-3,4-diamine] yielded a remaining activity at 10 µM [1] of 14.9 ± 2.31%, a remaining activity at 10 µM [2] of 97.78 ± 0.01% and a melting point of 227 to 229 °C.
Work on `Nc1ccc(Nc2nc3ccccc3c3[nH]nc(N)c23)cc1` [Compound 16, 3-Amino-4-(4-aminophenylamino)-1H-pyrazolo[4,3-c]quinoline] yielded a remaining activity at 10 µM [1] of 8 ± 1%, a remaining activity at 10 µM [2] of 82.5 ± 3.54% and a melting point of 355 to 356 °C.
Work on `Nc1n[nH]c2c1c(Nc1ccccc1Cl)nc1ccccc12` [Compound 31, N^4-(2-Chlorophenyl)-1H-pyrazolo[4,3-c]quinoline-3,4-diamine] yielded a remaining activity at 10 µM [1] of 29.7 ± 3%, a remaining activity at 10 µM [2] of 79.81 ± 0.01% and a melting point of 243 to 244 °C.
`CC(=O)c1cccc(Nc2nc3ccccc3c3[nH]nc(N)c23)c1` [Compound 28, 3-Amino-4-(3-acetylphenylamino)-1H-pyrazolo[4,3-c]quinoline] showed a remaining activity at 10 µM [1] of 91 ± 1%, a remaining activity at 10 µM [2] of 93 ± 2.83% and a melting point greater than 380 °C.
Molecule `Nc1n[nH]c2c1c(Nc1ccc(Cl)cc1)nc1ccc(Cl)cc12` (as salt: salt) [Compound 10, 8-Chloro-N^4-(4-chlorophenyl)-1H-pyrazolo[4,3-c]quinoline-3,4-diamine] has a melting point of 270 to 272 °C.
With `COc1ccc(NC(=O)Nc2n[nH]c3c2c(Nc2ccc(C)cc2)nc2ccccc23)cc1` [Compound 39, 1-(4-Methoxyphenyl)-3-[4-(p-tolylamino)-1H-pyrazolo[4,3-c]-quinolin-3-yl]urea] the remaining activity at 10 µM [1] was 3.5 ± 0.71%, the remaining activity at 10 µM [2] was 87.5 ± 2.12% and the melting point was 163 to 164 °C.
Work on `Cc1ccccc1Nc1nc2ccccc2c2[nH]nc(N)c12` [Compound 30, N^4-(o-Tolyl)-1H-pyrazolo[4,3-c]quinoline-3,4-diamine] yielded a remaining activity at 10 µM [1] of 17 ± 2.1%, a remaining activity at 10 µM [2] of 95.69 ± 0.01% and a melting point of 228 to 230 °C.
With `Cc1ccc(Nc2nc3cc(F)ccc3c3[nH]nc(N)c23)cc1` (as salt: salt) [Compound 9, 7-Fluoro-N^4-(p-tolyl)-1H-pyrazolo[4,3-c]quinoline-3,4-diamine] the melting point was 246 to 247 °C.
With `Nc1n[nH]c2c1c(Nc1ccc(Cl)cc1)nc1ccc(Br)cc12` [Compound 12, 8-Bromo-N^4-(4-chlorophenyl)-1H-pyrazolo[4,3-c]quinoline-3,4-diamine] the remaining activity at 10 µM [1] was 5 ± 1%, the remaining activity at 10 µM [2] was 79.3 ± 2.63% and the melting point was 264 °C (dec.).
`Nc1n[nH]c2c1c(Nc1ccccc1)nc1ccccc12` [Compound 14, 3-Amino-4-anilino-1H-pyrazolo[4,3-c]quinoline] showed a remaining activity at 10 µM [1] of 4 ± 1%, a remaining activity at 10 µM [2] of 105.5 ± 0.71% and a melting point of 256 to 258 °C.
In the case of `Nc1n[nH]c2c1c(Nc1ccc(C(=O)O)cc1)nc1ccccc12` (as salt: salt) [Compound 22, 4-(3-Amino-1H-pyrazolo[4,3-c]quinolin-4-ylamino)benzoic acid], the melting point is reported as 362 to 364 °C.
In the case of `Nc1n[nH]c2c1c(Nc1ccc(Cl)cc1)nc1cc(F)ccc12` [Compound 8, N^4-(4-Chlorophenyl)-7-fluoro-1H-pyrazolo[4,3-c]quinoline-3,4-diamine], the remaining activity at 10 µM [1] is reported as 4 ± 1%, the remaining activity at 10 µM [2] is reported as 83.5 ± 0.71% and the melting point is reported as 254 °C (dec.).
`Cc1cccc(Nc2nc3ccccc3c3[nH]nc(N)c23)c1` (as salt: salt) [Compound 25, N^4-(m-Tolyl)-1H-pyrazolo[4,3-c]quinoline-3,4-diamine] gave a melting point of 281 to 282 °C.
Work on `Cc1cccc2c1nc(Nc1ccc(Cl)cc1)c1c(N)n[nH]c12` [Compound 6, N^4-(4-Chlorophenyl)-6-methyl-1H-pyrazolo[4,3-c]quinoline-3,4-diamine] yielded a remaining activity at 10 µM [1] of 6 ± 1%, a remaining activity at 10 µM [2] of 78.5 ± 0.71% and a melting point of 249 to 250 °C.
With `Nc1n[nH]c2c1c(Nc1ccc(Cl)cc1)nc1ccccc12` [Compound 4, 3-Amino-4-(4-chlorophenylamino)-1H-pyrazolo[4,3-c]quinoline] the “Inhibition efficacy of eβG activity compared with βG-Inh” value ([1]; FIG. 1) was “better inhibition efficacy of eβG activity than βG-Inh”, the remaining activity at 10 µM [1] was 4.5 ± 0.71% and the “Selective inhibition of eβG versus hβG (in words)” value ([1]; recombinant eβG and hβG, serial dilution of inhibitors (FIG. 1)) was “selectively inhibited eβG activity but not hβG”. The “Inhibition efficacy of endogenous eβG activity compared with βG-Inh” value (endogenous eβG activity) was “better inhibition efficacy of endogenous eβG activity than βG-Inh”, the remaining activity at 10 µM [2] was 113 ± 2.83% and the melting point was 246 to 248 °C.
In the case of `COc1cccc(Nc2nc3ccccc3c3[nH]nc(N)c23)c1` [Compound 27, 3-Amino-4-(3-methoxyphenylamino)-1H-pyrazolo[4,3-c]quinoline], the remaining activity at 10 µM [1] is reported as 8 ± 1.41%, the remaining activity at 10 µM [2] is reported as 107 ± 1.41% and the melting point is reported as 184 to 186 °C.
For `Cc1ccc(Nc2nc3ccccc3c3[nH]nc(NC(=O)Nc4ccccc4)c23)cc1` [Compound 37, 1-Phenyl-3-[4-(p-tolylamino)-1H-pyrazolo[4,3-c]quinolin-3-yl]urea], the remaining activity at 10 µM [1] was 3 ± 1%, the remaining activity at 10 µM [2] was 82 ± 1.41% and the melting point was 212 to 213 °C.
Molecule `Cc1ccc(Nc2nc3ccc(Cl)cc3c3[nH]nc(N)c23)cc1` (as salt: salt) [Compound 11, 8-Chloro-N^4-(p-tolyl)-1H-pyrazolo[4,3-c]quinoline-3,4-diamine] has a melting point of 261 °C.
In the case of `Nc1n[nH]c2c1c(Nc1ccccc1O)nc1ccccc12` [Compound 29, 3-Amino-4-(2-hydroxyphenylamino)-1H-pyrazolo[4,3-c]quinoline], the remaining activity at 10 µM [1] is reported as 7 ± 1%, the remaining activity at 10 µM [2] is reported as 104 ± 2.12% and the melting point is reported as 156 to 157 °C.
`COc1ccc(NC(=O)Nc2n[nH]c3c2c(Nc2ccc(Cl)cc2)nc2ccccc23)cc1` [Compound 38, 1-{4-[(4-Chlorophenyl)amino]-1H-pyrazolo[4,3-c]quinolin-3-yl}-3-(4-methoxyphenyl)urea] showed a remaining activity at 10 µM [1] of 4 ± 1%, a remaining activity at 10 µM [2] of 85.5 ± 0.71% and a melting point of 211 to 212 °C.
